Assay results taken from patent US20130005721A1, “INDOLIZINE INHIBITORS OF 5-LIPOXYGENASE” (PANMIRA PHARMACEUTICALS, LLC, priority 2009, published 2013).

These molecules were tested on human leukocytes (LTB4 production, calcium ionophore stimulated) (assay: Human Leukocyte LTB4 Inhibition Assay). Conditions: Leukocyte, LTB4 by ELISA, read-out: LTB4 HLA IC50.
Format: cell-based
How it was run: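 Human peripheral leukocytes (1.25×10^5 cells/ml) were isolated by dextran sedimentation and hypotonic RBC lysis. They were preincubated with drug 5 min at 37 °C, then stimulated 30 min at 37 °C with calcium ionophore […] (working solution 1.25 mM). Supernatant LTB4 was measured by ELISA. IC50 versus vehicle came from nonlinear regression of % inhibition against log concentration.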

Row | SMILES | IC50
1 | CCC(O)(c1cn(Cc2ccn3c(-c4ccc(F)cc4)c(C(C)=O)cc3c2)nn1)C(F)(F)F (centres unmarked) [Compound 1-54, 1-{3-(4-Fluoro-phenyl)-7-[4-(1-hydroxy-1-trifluoromethyl-propyl)-[1,2,3]triazol-1-ylmethyl]-indolizin-2-yl}-ethanone] | < 300 nM
2 | CCNC(=O)c1cc2cc(Cn3cc(C(O)(CC)C(F)(F)F)nn3)ccn2c1-c1ccc(F)cc1 (centres unmarked) [Compound 1-55, 3-(4-Fluoro-phenyl)-7-[4-(1-hydroxy-1-trifluoromethyl-propyl)-[1,2,3]triazol-1-ylmethyl]-indolizine-2-carboxylic acid ethylamide] | 300 to 1000 nM
3 | CCC(O)(c1cn(Cc2ccn3c(-c4ccc(OC)nc4)c(C#N)cc3c2)nn1)C(F)(F)F (centres unmarked) [Compound 1-57, 7-[4-(1-Hydroxy-1-trifluoromethyl-propyl)-[1,2,3]triazol-1-ylmethyl]-3-(6-methoxy-pyridin-3-yl)-indolizine-2-carbonitrile] | < 300 nM
4 | CCOc1ccc(-c2c(C(N)=O)cc3cc(Cn4cc(C(O)(CC)C(F)(F)F)nn4)ccn23)cn1 (centres unmarked) [Compound 1-58, 3-(6-Ethoxy-pyridin-3-yl)-7-[4-(1-hydroxy-1-trifluoromethyl-propyl)-[1,2,3]triazol-1-ylmethyl]-indolizine-2-carboxylic acid amide] | > 1000 nM
5 | CCOc1ccc(-c2c(C#N)cc3cc(Cn4cc(C(O)(CC)C(F)(F)F)nn4)ccn23)cn1 (centres unmarked) [Compound 1-59, 3-(6-Ethoxy-pyridin-3-yl)-7-[4-(1-hydroxy-1-trifluoromethyl-propyl)-[1,2,3]triazol-1-ylmethyl]-indolizine-2-carbonitrile] | < 300 nM
6 | CCNCc1cc2cc(Cn3cc(C(O)(CC)C(F)(F)F)nn3)ccn2c1-c1ccc(F)cc1 (centres unmarked) [Compound 1-60, 2-{1-[2-Ethylaminomethyl-3-(4-fluoro-phenyl)-indolizin-7-ylmethyl]-1H-[1,2,3]triazol-4-yl}-1,1,1-trifluoro-butan-2-ol] | > 1000 nM
7 | CCC(O)(c1cn(Cc2ccn3c(-c4ccc(F)cc4)c(C(N)=O)c(Cl)c3c2)nn1)C(F)(F)F (centres unmarked) [Compound 1-61, 1-Chloro-3-(4-fluoro-phenyl)-7-[4-(1-hydroxy-1-trifluoromethyl-propyl)-[1,2,3]triazol-1-ylmethyl]-indolizine-2-carboxylic acid amide] | < 300 nM
8 | CCC(O)(c1cn(Cc2ccn3c(-c4ccnc(C)c4)c(C(N)=O)cc3c2)nn1)C(F)(F)F (centres unmarked) [Compound 1-64, 7-[4-(1-Hydroxy-1-trifluoromethyl-propyl)-[1,2,3]triazol-1-ylmethyl]-3-(2-methyl-pyridin-4-yl)-indolizine-2-carboxylic acid amide] | > 1000 nM
9 | CCC(O)(c1cn(Cc2ccn3c(-c4ccnc(C)c4)c(C#N)cc3c2)nn1)C(F)(F)F (centres unmarked) [Compound 1-65, 7-[4-(1-Hydroxy-1-trifluoromethyl-propyl)-[1,2,3]triazol-1-ylmethyl]-3-(2-methyl-pyridin-4-yl)-indolizine-2-carbonitrile] | < 300 nM
10 | CCC(O)(c1cn(Cc2ccn3c(C(C)=O)c(C(=O)OC)cc3c2)nn1)C(F)(F)F (centres unmarked) [Compound 1-66, 3-Acetyl-7-[4-(1-hydroxy-1-trifluoromethyl-propyl)-[1,2,3]triazol-1-ylmethyl]-indolizine-2-carboxylic acid methyl ester] | < 300 nM
11 | CCC(O)(c1cn(Cc2ccn3c(C(C)=O)c(C(N)=O)cc3c2)nn1)C(F)(F)F (centres unmarked) [Compound 1-67, 3-Acetyl-7-[4-(1-hydroxy-1-trifluoromethyl-propyl)-[1,2,3]triazol-1-ylmethyl]-indolizine-2-carboxylic acid amide] | > 1000 nM
12 | CCC(O)(c1cn(Cc2ccn3c(-c4ccc(=O)n(C)c4)c(C(N)=O)cc3c2)nn1)C(F)(F)F (centres unmarked) [Compound 1-68, 7-[4-(1-Hydroxy-1-trifluoromethyl-propyl)-[1,2,3]triazol-1-ylmethyl]-3-(1-methyl-6-oxo-1,6-dihydro-pyridin-3-yl)-indolizine-2-carboxylic acid amide] | > 1000 nM
13 | CCC(O)(c1cn(Cc2ccn3c(-c4ccc(=O)n(C)c4)c(C#N)cc3c2)nn1)C(F)(F)F (centres unmarked) [Compound 1-70, 7-[4-(1-Hydroxy-1-trifluoromethyl-propyl)-[1,2,3]triazol-1-ylmethyl]-3-(1-methyl-6-oxo-1,6-dihydro-pyridin-3-yl)-indolizine-2-carbonitrile] | > 1000 nM
14 | CCC(O)(c1cn(Cc2ccn3c(-c4ccc(C)nc4)c(C(N)=O)cc3c2)nn1)C(F)(F)F (centres unmarked) [Compound 1-71, 7-[4-(1-Hydroxy-1-trifluoromethyl-propyl)-[1,2,3]triazol-1-ylmethyl]-3-(6-methyl-pyridin-3-yl)-indolizine-2-carboxylic acid amide] | > 1000 nM
15 | CCC(O)(c1cn(Cc2ccn3c(-c4ccc(C)nc4)c(C#N)cc3c2)nn1)C(F)(F)F (centres unmarked) [Compound 1-72, 7-[4-(1-Hydroxy-1-trifluoromethyl-propyl)-[1,2,3]triazol-1-ylmethyl]-3-(6-methyl-pyridin-3-yl)-indolizine-2-carbonitrile] | < 300 nM

Results, then the molecule that gave them:

Row | IC50 | SMILES
16 | < 300 nM | CCOC(=O)c1cc2cc(Cn3cc(C(O)(CC)C(F)(F)F)nn3)ccn2c1-c1cnc2ccccc2c1 (centres unmarked) [Compound 1-52, 7-[4-(1-Hydroxy-1-trifluoromethyl-propyl) [1,2,3]triazol-1-ylmethyl]-3-quinolin-3-yl-indolizine-2-carboxylic acid ethyl ester]
17 | < 300 nM | CCC(O)(c1cn(Cc2ccn3c(-c4cnc5ccccc5c4)c(C#N)cc3c2)nn1)C(F)(F)F (centres unmarked) [Compound 1-53, 7-[4-(1-Hydroxy-1-trifluoromethyl-propyl)-[1,2,3]triazol-1-ylmethyl]-3-quinolin-3-yl-indolizine-2-carbonitrile]
18 | < 300 nM | CCOC(=O)c1cc2cc(Cn3cc(C(O)(CC)C(F)(F)F)nn3)ccn2c1-c1ccc(OCC)nc1 (centres unmarked) [Compound 1-56, 3-(6-Ethoxy-pyridin-3-yl)-7-[4-(1-hydroxy-1-trifluoromethyl-propyl)-[1,2,3]triazol-1-ylmethyl]-indolizine-2-carboxylic acid ethyl ester]
19 | 300 to 1000 nM | CCOC(=O)c1cc2cc(Cn3cc(C(O)(CC)C(F)(F)F)nn3)ccn2c1-c1ccc(=O)n(C)c1 (centres unmarked) [Compound 1-62, 7-[4-(1-Hydroxy-1-trifluoromethyl-propyl)-[1,2,3]triazol-1-ylmethyl]-3-(1-methyl-6-oxo-1,6-dihydro-pyridin-3-yl)-indolizine-2-carboxylic acid ethyl ester]
20 | < 300 nM | CCOC(=O)c1cc2cc(Cn3cc(C(O)(CC)C(F)(F)F)nn3)ccn2c1-c1ccnc(C)c1 (centres unmarked) [Compound 1-63, 7-[4-(1-Hydroxy-1-trifluoromethyl-propyl)-[1,2,3]triazol-1-ylmethyl]-3-(2-methyl-pyridin-4-yl)-indolizine-2-carboxylic acid ethyl ester]
21 | < 300 nM | CCOC(=O)c1cc2cc(Cn3cc(C(O)(CC)C(F)(F)F)nn3)ccn2c1-c1ccc(C)nc1 (centres unmarked) [Compound 1-69, 7-[4-(1-Hydroxy-1-trifluoromethyl-propyl)-[1,2,3]triazol-1-ylmethyl]-3-(6-methyl-pyridin-3-yl)-indolizine-2-carboxylic acid ethyl ester]
22 | < 300 nM | CCOC(=O)c1cc2cc(Cn3cc(C(O)(CC)C(F)(F)F)nn3)ccn2c1-c1cncnc1 (centres unmarked) [Compound 1-73, 7-[4-(1-Hydroxy-1-trifluoromethyl-propyl)-[1,2,3]triazol-1-ylmethyl]-3-pyrimidin-5-yl-indolizine-2-carboxylic acid ethyl ester]
23 | < 300 nM | CCOC(=O)c1cc2cc(Cn3cc(C(O)(CC)C(F)(F)F)nn3)ccn2c1-c1cnn(C)c1 (centres unmarked) [Compound 1-74, 7-[4-(1-Hydroxy-1-trifluoromethyl-propyl)-[1,2,3]triazol-1-ylmethyl]-3-(1-methyl-1H-pyrazol-4-yl)-indolizine-2-carboxylic acid ethyl ester]
